From patent US20220298510A1, “COMPOUNDS AND METHODS FOR INHIBITING CANCERS VIA REST INHIBITION” (Icahn School of Medicine at Mount Sinai, priority 2019, published 2022)

Key:
ATRX IFF NB cells = experiment: Proliferation (Incucyte, percent confluence normalized to DMSO) of ATRX IFF NB cells; type: cell-based, human; settings: proliferation IC50 curves, day 12 (FIG. 11a)
Text: GAPDH used as a loading control. […] Percent confluence normalized to DMSO for each condition and plotted at day 12. Values normalized mean n±SD (n=3). Statistical significance assessed using student's unpaired t-test with each cell line compared to DMSO (* indicates p<0.05). […] Percent AV positive cells plotted, values are mean n±SD (n=3). Statistical significance assessed using student's unpaired t-test with each cell line compared to DMSO (* indicates p<0.05). (d) Tumor volume measurements of CHLA-90 cells subcutaneously injected into immunocompromised mice. Mice were treated with vehicle or UNC1999 at 300 mg/kg of body weight for 25 days, values mean n±SEM (n=9). Statistical significance assessed using student's unpaired t-test compared to vehicle (* indicates p<0.001). […]
Proliferation evaluated using the […] […] IC50 for each cell line calculated in Prism. […] Statistical significance assessed using student's unpaired t-test with each cell line compared to DMSO (* indicates p<0.05). […] Proliferation assessed in the same manner as (a). Statistical significance assessed using student's unpaired t-test with each cell line compared to DMSO (* indicates p<0.05). […] AV staining assessed in the same manner as (b). […] Proliferation assessed in the same manner as (a). […] AV staining assessed in the same manner as (b).
GAPDH used as a loading control. […] Proliferation evaluated using the Incucyte™ Life-Cell Imaging System. […]

CHLA-90 xenografts = CHLA-90 xenografts in immunocompromised mice; type: in vivo; settings: 300 mg/kg of body weight, 25 days
Text: GAPDH used as a loading control. […] Percent confluence normalized to DMSO for each condition and plotted at day 12. Values normalized mean n±SD (n=3). Statistical significance assessed using student's unpaired t-test with each cell line compared to DMSO (* indicates p<0.05). […] Percent AV positive cells plotted, values are mean n±SD (n=3). Statistical significance assessed using student's unpaired t-test with each cell line compared to DMSO (* indicates p<0.05). (d) Tumor volume measurements of CHLA-90 cells subcutaneously injected into immunocompromised mice. Mice were treated with vehicle or UNC1999 at 300 mg/kg of body weight for 25 days, values mean n±SEM (n=9). Statistical significance assessed using student's unpaired t-test compared to vehicle (* indicates p<0.001). (e) Tumor weight measurement from xenografts collected in (d), values mean n±SEM (n=9). Images of excised tumors underneath (* indicates p<0.001). (f) Immunoblots for H3K27me3 from acid extracted histones derived from vehicle and treated xenografts. H4 and histones used as loading controls.

Compound	sensitivity of ATRX IFF NB cells compared to other NB subtypes (ATRX IFF NB cells)	tumor growth and volume compared to vehicle-treated tumors (CHLA-90 xenografts)
CCN(c1cc(-c2ccc(CN3CCOCC3)cc2)cc(C(=O)NCc2c(C)cc(C)[nH]c2=O)c1C)C1CCOCC1 [EPZ-6438, Tazemetostat]	5-10 fold	
CCCc1cc(C)[nH]c(=O)c1CNC(=O)c1cc(-c2ccc(N3CCN(C(C)C)CC3)nc2)cc2c1cnn2C(C)C [UNC1999]		significant reduction
